# In patent US10500169B2, “Supression of IgE production by compounds derived from traditional chinese medicine” (Sean N. Parker Foundation, priority 2014, dated 2019):
# What was measured:
# U266 cells [1] = experiment: IgE production by U266 myeloma cells, ELISA of supernatants; assay type: cell-based, human
# Description: The IgE producing human U266 myeloma cell line (American Type Culture Collection; Rockville, Md.) has been used for screening pharmaceutical agents for IgE inhibitory effects, and thus this cell line was used to test the potential IgE inhibitory effects of herb extracts and purified compounds. Cells were cultured at 37° C. under 5% CO2 in complete media containing RPMI 1640 medium supplemented, 10% FBS, 1 mM sodium pyruvate, 1×10^-5 M β-ME and 0.5% penicillin-streptomycin. Cells were grown at an initial concentration of 2×10^5 cells/mL. FAHF-2 and B-FAHF-2, individual herb extracts and isolated compounds at different concentrations were added at day 0. Supernatants were harvested after 6 days culture, and IgE levels were determined by using an ELISA Kit (Mabtech Inc, OH). In each experiment, we run duplicate ELISA. In vitro experiments were repeated at least 3 times.
# Human U266 myeloma cells (American Type Culture Collection; Rockville, Md.) were cultured in complete medium (RPMI 1640 medium supplemented, 10% FBS, 1 mM sodium pyruvate, 1×10^−5 M β-ME and 0.5% penicillin-streptomycin) at 37° C. under 5% CO2. Cells were grown at an initial concentration of 2×10^5 cells/mL with purpurin and alizarin from Rubia cordifolia L. at different concentrations (0.31, 0.62, 1.25, 2.5, 5 μg/mL), and with arctiin and arctigenin from Arctium lappa L. at different concentrations ([…]) for 6 days. The supernatants were harvested on day 6 for total IgE analysis using ELISA.
# IL-5 = experiment: RT-PCR gene expression in stimulated PBMCs: IL-5; assay type: cell-based, human; settings: 10 μg/mL
# Description: (§1) Quantitative real time PCR was used to detect the epsilon germline transcription. Human PBMC cells (1.5×10^6 cells/mL) were co-incubated with DMF-C1 compound (10 μg/mL) at 37° C. under 5% CO2 for 4 days. Cells were then harvested and total RNA was isolated using Trizol reagent (Gibco BRL, Rockville, Md.) following the manufacturer's instructions. The RNA concentrations were then quantified by triplicate optical density (OD) readings (Bio-Rad SmartSpect 3000; Bio-Rad, Hercules, Calif.). The reverse transcription was performed to get the cDNA using ImProm-II™ Reverse Transcriptase (Promega Corporation, Madison, Wis.) as described by the manufacturer's instructions. The RT-PCR amplification was performed using Maxima™ SYBR Green qPCR Master Mix (2×) kit (Fisher Scientific, Pittsburgh, Pa.) with epsilon germline primers or GAPDH primers. The primer sequences were listed as εGLT forward: 5′-[…]-3′; εGLT reverse: 5′-[…]-3′; GAPDH-forward: 5′-[…]-3′; GAPDH-reverse: 5′-[…]-3′; STAT3-forward: 5′-[…]-3′; STAT3-reverse: 5′-[…]-3′; T-bet-forward: 5′-[…]-3′; T-bet-reverse: 5′-[…]-3′; IFN-γ-forward: 5′-[…]-3′; IFN-γ-reverse: 5′-[…]-3′; IL-10-forward: 5′-[…]-3′; IL-10-reverse: 5′-[…]-3′. IL-5-forward. 5′-[…] TGCA-3′; IL-5-reverse: 5′-[…]-3′. All primers were synthesized by Sigma-Aldrich Corporation (St. Louis, Mo.).
# U266 cells [2] = experiment: Cell viability of U266 cells, trypan blue exclusion; assay type: cell-based, human; settings: at the concentrations tested
# Description: Cell viability was evaluated using a trypan blue exclusion as previously described. Briefly, a 10 μl of cells suspension from each culture was mixed with equal volume of trypan blue dye. The mixture was loaded into a hemocytometer and cells were counted under a microscope. The percentage of viable cells was calculated as follows: Viable cells (%)=(total number of viable cells)/(total number of cells)×100.
# phosphorylated-IκBα = experiment: In-Cell Western of phosphorylated IκBα in PBMCs; assay type: cell-based, human; settings: 10 μg/mL, vs non-treated stimulated cells
# Description: PBMCs (1×10^5 cells/mL) were cultured with or without DMF-C1 (10 μg/mL) and stimulated with or without rIL-4 (100 ng/mL) and anti-CD40 (1 μg/mL) mAb for 10 days. In-Cell Western Assay (Li-Cor, Lincoln, Nebr.) was performed following the manufacturer's instructions. In brief, cells were incubated with antibodies against phosphorylated-IκBα (p-IκBα; Cell Signaling) and β-actin (Santa Cruz Biotechnology) overnight. After washing with 0.1% Tween PBS buffer, secondary antibodies IRDye800CW donkey anti-goat and IRDye680 donkey anti-rabbit (LI-Cor) were added and incubated at room temperature for 1 hour in the dark. Plates were scanned and analyzed with Odyssey CLx Infrared Imaging System.
# [3] = In vivo pharmacokinetics study of berberine bioavailability, serum LC-MS; settings: C3H/HeJ, mouse, oral berberine 2 mg, with or without Angelica sinensis 10 mg, 1 hr after administration, read-out: Concentration of berberine in serum from mice
# Description: C3H/Hej mice were purchased from Jackson laboratory (Bar Harbor, Me.) and maintained in the animal facility at Mount Sinai School of Medicine^(39). Standard guidelines for the care and use of animals were followed (Institute of Laboratory Animal Resources Commission of Life Sciences, 1996). In order to study the bioavailability, C3H/Hej mice were randomly separated into two groups. Mice were fasted for 12 h before the oral administration of berberine (2 mg) or berberine (2 mg)+Angelica sinensis (10 mg). Blood samples (100 μl) were collected from the facial vein at 1 hr after the administration. The serum of each blood sample was prepared and stored at −80° C. for further analysis. For in vivo study of berberine bioavailability, 50 μL of each serum sample was mixed with 400 μL of acetonitrile and vortexed thoroughly. The mixture was then centrifuged at 1000 rpm for 15 mins. The supernatant was dried under vacuum and resuspended into 50 μL of acetonitrile. All samples were analyzed using waters LC-MS system (Waters corp. MA) for berberine detection. Molecular weight was identified by LC-MS/TOF analysis in elctrospray (ESI) positive mode. The LCT premier TOF mass spectrometer (Waters Corporation, Milford, Mass.) was coupled to Waters Alliance 2695 HPLC system. […]. The mass range was from m/z 50 to 1000 in W optics mode. […]
# IL-10 = experiment: RT-PCR gene expression in stimulated PBMCs: IL-10; assay type: cell-based, human; settings: 10 μg/mL
# Description: as §1
# IFN-γ = experiment: RT-PCR gene expression in stimulated PBMCs: IFN-γ; assay type: cell-based, human; settings: 10 μg/mL
# Description: as §1
# GATA-3 = experiment: RT-PCR gene expression in stimulated PBMCs: GATA-3; assay type: cell-based, human; settings: 10 μg/mL
# Description: as §1
smiles,measurement,setting,value
COc1ccc2cc3[n+](cc2c1OC)CCc1cc2c(cc1-3)OCO2 [berberine],inhibition at 20 µg/mL,"U266 cells [1]; Homo sapiens, U-266, 144 h, 20 μg/mL, 6 days",94.6%
same,IC50,"U266 cells [1]; Homo sapiens, U-266, 144 h, 6 days culture, read-out: IC50 of inhibition of IgE production by U266 cells",3.95 mg/L
same,effect on IgE production by U266 cells (in words),"U266 cells [1]; different concentrations, 6 days",inhibited IgE production in a dose-dependent manner
same,mRNA level of IL-5,IL-5,significantly decreased
same,cell viability of U266 cells,U266 cells [2],no toxicity
same,phosphorylated IκBα levels,phosphorylated-IκBα,significantly suppressed
same,concentration at 1 h,[3],0.28 µg/mL
same,mRNA level of IL-10,IL-10,trend of increase
same,mRNA level of IFN-γ,IFN-γ,trend of increase
same,GATA-3 expression,GATA-3,No significant change
